Assays:
Format in all cases: functional
Acinetobacter baumannii [1] = assay: Antibacterial activity against multi-drug resistant Acinetobacter baumannii clinical isolate 92247 assessed as inhibition of bacterial growth incubated for 18 hrs by two fold broth microdilution assay
Staphylococcus aureus [2] = assay: Antibiotic adjuvant activity against methicilin-resistant Staphylococcus aureus assessed as rifampicin MIC incubated for 18 hrs in presence of rifampicin by two fold broth microdilution checkerboard assay
Pseudomonas aeruginosa [3] = assay: Antibiotic adjuvant activity against multi-drug resistant Pseudomonas aeruginosa clinical isolate PA259 assessed as fold potentiation incubated for 18 hrs in presence of minocycline by two fold broth microdilution checkerboard assay
Acinetobacter baumannii [4] = assay: Antibacterial activity against multi-drug resistant Acinetobacter baumannii clinical isolate AB031 assessed as inhibition of bacterial growth incubated for 18 hrs by two fold broth microdilution assay
Escherichia coli [5] = assay: Antibiotic adjuvant activity against multi-drug resistant Escherichia coli clinical isolate EC94474 assessed as inhibition of bacterial growth incubated for 18 hrs in presence of doxycycline by two fold broth microdilution checkerboard assay
Escherichia coli [6] = assay: Antibiotic adjuvant activity against multi-drug resistant Escherichia coli clinical isolate 94393 assessed as fold potentiation incubated for 18 hrs in presence of Rifampicin by two fold broth microdilution checkerboard assay
Pseudomonas aeruginosa [7] = assay: Antibiotic adjuvant activity against multi-drug resistant Pseudomonas aeruginosa clinical isolate PA262 assessed as inhibition of bacterial growth incubated for 18 hrs in presence of Rifampicin by two fold broth microdilution checkerboard assay
Pseudomonas aeruginosa [8] = assay: Antibiotic adjuvant activity against multi-drug resistant Pseudomonas aeruginosa clinical isolate PA259 assessed as doxycycline MIC incubated for 18 hrs in presence of doxycycline by two fold broth microdilution checkerboard assay
Acinetobacter baumannii [9] = assay: Antibiotic adjuvant activity against multi-drug resistant Acinetobacter baumannii clinical isolate LAC-4 assessed as inhibition of bacterial growth incubated for 18 hrs in presence of Rifampicin by two fold broth microdilution checkerboard assay
Pseudomonas aeruginosa [10] = assay: Antibiotic adjuvant activity against multi-drug resistant Pseudomonas aeruginosa clinical isolate PA262 assessed as doxycycline MIC incubated for 18 hrs in presence of doxycycline by two fold broth microdilution checkerboard assay
Pseudomonas aeruginosa [11] = assay: Antibiotic adjuvant activity against multi-drug resistant Pseudomonas aeruginosa clinical isolate PA259 assessed as minocycline MIC incubated for 18 hrs in presence of minocycline by two fold broth microdilution checkerboard assay
Pseudomonas aeruginosa [12] = assay: Antibiotic adjuvant activity against multi-drug resistant Pseudomonas aeruginosa clinical isolate PA101243 assessed as fractional inhibitory concentration index incubated for 18 hrs in presence of minocycline by two fold broth microdilution checkerboard assay
Escherichia coli [13] = assay: Antibiotic adjuvant activity against multi-drug resistant Escherichia coli clinical isolate EC94474 assessed as fold potentiation incubated for 18 hrs in presence of minocycline by two fold broth microdilution checkerboard assay
Pseudomonas aeruginosa [14] = assay: Antibiotic adjuvant activity against multi-drug resistant Pseudomonas aeruginosa clinical isolate PA101243 assessed as fractional inhibitory concentration index incubated for 18 hrs in presence of doxycycline by two fold broth microdilution checkerboard assay
Enterococcus faecium = assay: Antibacterial activity against Enterococcus faecium 114278 assessed as inhibition of bacterial growth incubated for 18 hrs by two fold broth microdilution assay
Escherichia coli [15] = assay: Antibiotic adjuvant activity against multi-drug resistant Escherichia coli clinical isolate EC94474 assessed as minocycline MIC incubated for 18 hrs in presence of minocycline by two fold broth microdilution checkerboard assay
Pseudomonas aeruginosa [16] = assay: Antibacterial activity against multi-drug resistant Pseudomonas aeruginosa clinical isolate 101243 assessed as inhibition of bacterial growth incubated for 18 hrs by two fold broth microdilution assay
Pseudomonas aeruginosa [17] = assay: Antibiotic adjuvant activity against multi-drug resistant Pseudomonas aeruginosa clinical isolate PA262 assessed as fractional inhibitory concentration index incubated for 18 hrs in presence of doxycycline by two fold broth microdilution checkerboard assay
Pseudomonas aeruginosa [18] = assay: Antibiotic adjuvant activity against multi-drug resistant Pseudomonas aeruginosa clinical isolate PA101243 assessed as minocycline MIC incubated for 18 hrs in presence of minocycline by two fold broth microdilution checkerboard assay
Pseudomonas aeruginosa [19] = assay: Antibiotic adjuvant activity against multi-drug resistant Pseudomonas aeruginosa clinical isolate PA262 assessed as fold potentiation incubated for 18 hrs in presence of doxycycline by two fold broth microdilution checkerboard assay
Escherichia coli [20] = assay: Antibacterial activity against multi-drug resistant Escherichia coli clinical isolate 107115 assessed as inhibition of bacterial growth incubated for 18 hrs by two fold broth microdilution assay
Acinetobacter baumannii [21] = assay: Antibiotic adjuvant activity against multi-drug resistant Acinetobacter baumannii clinical isolate AB027 assessed as inhibition of bacterial growth incubated for 18 hrs in presence of Rifampicin by two fold broth microdilution checkerboard assay
Pseudomonas aeruginosa [22] = assay: Antibiotic adjuvant activity against multi-drug resistant Pseudomonas aeruginosa clinical isolate 114228 assessed as fold potentiation incubated for 18 hrs in presence of Rifampicin by two fold broth microdilution checkerboard assay
Pseudomonas aeruginosa [23] = assay: Antibiotic adjuvant activity against multi-drug resistant Pseudomonas aeruginosa clinical isolate PA259 assessed as rifampicin MIC incubated for 18 hrs in presence of Rifampicin by two fold broth microdilution checkerboard assay
Pseudomonas aeruginosa [24] = assay: Antibiotic adjuvant activity against multi-drug resistant Pseudomonas aeruginosa clinical isolate PA262 assessed as fractional inhibitory concentration index incubated for 18 hrs in presence of minocycline by two fold broth microdilution checkerboard assay
Staphylococcus aureus [25] = assay: Antibacterial activity against methicilin-resistant Staphylococcus aureus assessed as inhibition of bacterial growth incubated for 18 hrs by two fold broth microdilution assay
Escherichia coli [26] = assay: Antibiotic adjuvant activity against multi-drug resistant Escherichia coli clinical isolate EC107115 assessed as fold potentiation incubated for 18 hrs in presence of minocycline by two fold broth microdilution checkerboard assay
Escherichia coli [27] = assay: Antibacterial activity against multi-drug resistant Escherichia coli clinical isolate EC94474 assessed as inhibition of bacterial growth incubated for 18 hrs by two fold broth microdilution assay
Pseudomonas aeruginosa [28] = assay: Antibiotic adjuvant activity against multi-drug resistant Pseudomonas aeruginosa clinical isolate PA264 assessed as fractional inhibitory concentration index incubated for 18 hrs in presence of Rifampicin by two fold broth microdilution checkerboard assay
Acinetobacter baumannii [29] = assay: Antibiotic adjuvant activity against Acinetobacter baumannii ATCC 17978 assessed as fold potentiation at 8 to 16 ug/ml incubated for 18 hrs in presence of rifampicin and FBS media by two fold broth microdilution checkerboard assay; conditions: dose 8-16 µg/ml
Pseudomonas aeruginosa [30] = assay: Antibiotic adjuvant activity against multi-drug resistant Pseudomonas aeruginosa clinical isolate PA264 assessed as fractional inhibitory concentration index incubated for 18 hrs in presence of doxycycline by two fold broth microdilution checkerboard assay
Pseudomonas aeruginosa [31] = assay: Antibiotic adjuvant activity against Pseudomonas aeruginosa PAO1 assessed as fold potentiation incubated for 18 hrs in presence of doxycycline by two fold broth microdilution checkerboard assay
Escherichia coli [32] = assay: Antibiotic adjuvant activity against multi-drug resistant Escherichia coli clinical isolate EC94474 assessed as fractional inhibitory concentration index incubated for 18 hrs in presence of minocycline by two fold broth microdilution checkerboard assay
Pseudomonas aeruginosa [33] = assay: Antibiotic adjuvant activity against multi-drug resistant Pseudomonas aeruginosa clinical isolate PA101243 assessed as inhibition of bacterial growth incubated for 18 hrs in presence of minocycline by two fold broth microdilution checkerboard assay
Pseudomonas aeruginosa [34] = assay: Antibiotic adjuvant activity against multi-drug resistant Pseudomonas aeruginosa clinical isolate PA264 assessed as fold potentiation incubated for 18 hrs in presence of minocycline by two fold broth microdilution checkerboard assay
Acinetobacter baumannii [35] = assay: Antibiotic adjuvant activity against Acinetobacter baumannii ATCC 17978 assessed as fold potentiation incubated for 18 hrs in presence of rifampicin by two fold broth microdilution checkerboard assay relative to FBS

Cl.NC[C@H]1O[C@H](O[C@H]2[C@H](OCc3ccccc3)[C@@H](O[C@H]3O[C@H](COCc4ccccc4)[C@@H](OCc4ccccc4)[C@H](N)[C@H]3OCc3ccccc3)[C@H](N)C[C@@H]2N)[C@H](N)C[C@@H]1OCc1ccccc1
MIC (Acinetobacter baumannii [1]): 32 µg/mL | MIC (Staphylococcus aureus [2]): 256 µg/mL | fold change (FC) (Pseudomonas aeruginosa [3]): 1 | MIC (Acinetobacter baumannii [4]): 32 µg/mL | MIC (Escherichia coli [5]): 8 µg/mL | fold change (FC) (Escherichia coli [6]): 1 | MIC (Pseudomonas aeruginosa [7]): 8 µg/mL | MIC (Pseudomonas aeruginosa [8]): 256 µg/mL | MIC (Acinetobacter baumannii [9]): 4 µg/mL | MIC (Pseudomonas aeruginosa [10]): 512 µg/mL | MIC (Pseudomonas aeruginosa [11]): 128 µg/mL | fractional inhibitory concentration index (FICI) (Pseudomonas aeruginosa [12]): 1.063 | fold change (FC) (Escherichia coli [13]): 64 | fractional inhibitory concentration index (FICI) (Pseudomonas aeruginosa [14]): 1.063 | MIC (Enterococcus faecium): 8 µg/mL | MIC (Escherichia coli [15]): 1 µg/mL | MIC (Pseudomonas aeruginosa [16]): 64 µg/mL | fractional inhibitory concentration index (FICI) (Pseudomonas aeruginosa [17]): 1.063 | MIC (Pseudomonas aeruginosa [18]): 64 µg/mL | fold change (FC) (Pseudomonas aeruginosa [19]): 1 | MIC (Escherichia coli [20]): 32 µg/mL | MIC (Acinetobacter baumannii [21]): 8 µg/mL | fold change (FC) (Pseudomonas aeruginosa [22]): 1 | MIC (Pseudomonas aeruginosa [23]): 16 µg/mL | fractional inhibitory concentration index (FICI) (Pseudomonas aeruginosa [24]): 1.063 | MIC (Staphylococcus aureus [25]): 16 µg/mL | fold change (FC) (Escherichia coli [26]): 32 | MIC (Escherichia coli [27]): 32 µg/mL | fractional inhibitory concentration index (FICI) (Pseudomonas aeruginosa [28]): 1.063 | fold change (FC) (Acinetobacter baumannii [29]): 4 | fractional inhibitory concentration index (FICI) (Pseudomonas aeruginosa [30]): 1.063 | fold change (FC) (Pseudomonas aeruginosa [31]): 4 | fractional inhibitory concentration index (FICI) (Escherichia coli [32]): 0.094 | MIC (Pseudomonas aeruginosa [33]): 8 µg/mL | fold change (FC) (Pseudomonas aeruginosa [34]): 2 | fold change (FC) (Acinetobacter baumannii [35]): 64

Reference: ChEMBL document CHEMBL5335843, “Application of tobramycin benzyl ether as an antibiotic adjuvant capable of sensitizing multidrug-resistant Gram-negative bacteria to rifampicin” (2024)
